Literature values as cited in patent US6335015B1, “Method of the prophylactic treatment of mastitis” (Astacarotene AB, priority 1997, dated 2002).

Tests used:
sows = settings: feed supplemented with astaxanthin prior to parturition and during lactation
[1] = biological tests

For `CC1=C(/C=C/C(C)=C/C=C/C(C)=C/C=C/C=C(C)/C=C/C=C(C)/C=C/C2=C(C)C(=O)[C@@H](O)CC2(C)C)C(C)(C)C[C@H](O)C1=O` [astaxanthin], the piglets born alive (sows) is listed as “more piglets born alive” and the “antioxidative properties compared to other carotenoids” value [1] is listed as “clearly the best antioxidative properties”.
